From paper PMC5626944 (Frontiers in Pharmacology, 2017)
Like-named read-outs stand apart in the source and are kept apart here.

Tests used:
Dopamine, D4.4 (h) = test: NovaScreen competition binding; set-up: species or system human; details: 1 µM
Muscarinic, M1 (hr) = test: NovaScreen competition binding; set-up: species or system human; details: 1 µM
Human FMO3 = test: Turnover by human flavin-containing monooxygenase 3; type: in vitro ADME; details: 100 pmol/mL enzyme, 37 °C
Method: S2 Table. In vitro metabolism of TC299423, compared w ith varenicline.
Human Rat microsomes Turnover by human cytochrome P450 isoforms […]
The assay mixtures (final incubation volume of 125 μL) in 0.255 M phosphate buffer with 0.575% (w/v) KCl (pH 7.4) contained PiB (1.0 μM), […] a recombinantly expressed cytochrome P450 enzyme preparation (1A2, 2C9, 2C19, 2D6, 3A4, and FMO3) at 100 pmol/mL. After a 10 min preincubation at 37 °C, the reaction was initiated by addition of 2.0 mM NADPH and incubated for 60 min. The reactions were terminated by the addition of two volumes of DMSO. Samples were subsequently centrifuged at 4,000 rpm for 10 min. From the resulting supernatant, 10 μ L was analyzed by liquid chromatography/tandem mass spectrometry (LC-MS/MS). Control experiments were performed by substituting the active enzyme preparation by cell preparations containing no recombinant human CYP. a, Data for clearance are given as μL /min/mg protein. […]
c, Data for cytochrome P450 turnover and for human flavin- containing monooxygenase 3 (FMO3) are given as percent decline over 60 min.

Muscarinic, M2 (h) = test: NovaScreen competition binding; set-up: species or system human; details: 1 µM
α4β2* nAChRs = α4β2* nAChRs (Mus musculus, UniProt O70174+Q9ERK7); test: biochemical; type: biochemical; details: for Emax: relative to nicotine; for EC50: read-out: Neurotransmitter release EC50
Chain of α4β2* nAChRs (O70174 31-629): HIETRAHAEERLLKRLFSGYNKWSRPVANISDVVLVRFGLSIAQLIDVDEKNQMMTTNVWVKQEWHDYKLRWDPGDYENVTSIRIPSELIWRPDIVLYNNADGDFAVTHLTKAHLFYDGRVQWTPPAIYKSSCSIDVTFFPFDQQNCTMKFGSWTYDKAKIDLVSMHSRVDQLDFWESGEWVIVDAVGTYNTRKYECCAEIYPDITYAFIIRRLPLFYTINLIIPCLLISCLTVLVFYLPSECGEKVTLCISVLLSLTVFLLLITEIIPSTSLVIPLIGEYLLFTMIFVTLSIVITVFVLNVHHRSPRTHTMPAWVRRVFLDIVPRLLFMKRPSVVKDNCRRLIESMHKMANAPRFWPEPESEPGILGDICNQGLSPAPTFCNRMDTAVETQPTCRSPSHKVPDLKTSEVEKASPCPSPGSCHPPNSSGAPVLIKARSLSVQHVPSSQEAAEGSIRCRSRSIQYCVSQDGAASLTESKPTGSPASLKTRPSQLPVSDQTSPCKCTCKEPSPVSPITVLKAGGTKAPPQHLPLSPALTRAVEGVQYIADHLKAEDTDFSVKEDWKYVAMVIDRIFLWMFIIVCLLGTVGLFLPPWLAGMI
Chain of α4β2* nAChRs (Q9ERK7 26-501): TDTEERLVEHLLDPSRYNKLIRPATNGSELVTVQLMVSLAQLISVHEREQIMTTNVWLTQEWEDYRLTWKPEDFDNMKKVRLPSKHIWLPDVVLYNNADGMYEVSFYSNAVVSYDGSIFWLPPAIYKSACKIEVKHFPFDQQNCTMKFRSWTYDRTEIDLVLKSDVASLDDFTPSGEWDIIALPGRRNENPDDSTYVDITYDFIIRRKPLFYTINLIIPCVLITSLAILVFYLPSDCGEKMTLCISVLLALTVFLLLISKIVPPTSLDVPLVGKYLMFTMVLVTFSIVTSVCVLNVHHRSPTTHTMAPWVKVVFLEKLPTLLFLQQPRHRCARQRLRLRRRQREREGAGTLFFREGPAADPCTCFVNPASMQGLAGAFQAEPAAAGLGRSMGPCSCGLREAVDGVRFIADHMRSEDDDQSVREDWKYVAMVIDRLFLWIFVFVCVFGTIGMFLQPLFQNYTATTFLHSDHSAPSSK
Method: Regions of interest were dissected from fresh mouse brains and homogenized in ice-cold isotonic sucrose (0.32 M), buffered with HEPES (5 mM, pH 7.5). The suspension was centrifuged at 12,000 × g for 20 min.
Superfusion proceeded at 0.7 mL/min for 10 min before stimulation with agonist for 20 s. Selected aliquots were perfused with α-CtxMII (50 nM) for 3 min immediately before stimulation. […] Fractions (∼0.1 mL) were collected into 96-well plates at 10 s intervals for 4 min (starting ∼1 min before stimulation).

[1] = system: T1, Leukotriene, LTD4 (CysLT1); test: NovaScreen competition binding; details: 1 µM
T1 construct: PerkinElmer – Caliper Life Sciences (NovaScreen service)

Serotonin, 5HT3 = system: T2, Serotonin, 5HT3; test: NovaScreen competition binding; set-up: species or system mouse; details: 1 µM
T2 construct: endogenous in cells; host or cells: N1E-115 (mouse neuroblastoma)
Excerpt: Assays included the nicotinic drug [^3H]epibatidine binding to α-bungarotoxin-insensitive nAChRs, the 5-HT3 inhibitor [N-methyl-^3H]GR65630 to mouse receptors in N1E-115 cells, and human receptors expressed in a clonal cell line. Other assays included monoamine oxidase A, monoamine oxidase B, 5-HT transporter, norepinephrine transporter, and dopamine transporter, as well as other. G-protein-coupled receptors, ion channels, enzymes, and transporters.

[2] = system: Nitric Oxide, NOS (Neuronal-Binding); test: NovaScreen competition binding; details: 1 µM
Adenosine, A1 = system: T3, Adenosine, A1; test: NovaScreen competition binding; details: 1 µM
T3 construct: PerkinElmer – Caliper Life Sciences (NovaScreen service)

[3] = In vitro metabolism in microsomes; type: in vitro ADME; details: human microsomes
Angiotensin II, AT1 (h) = system: T4, Angiotensin II, AT1 (h); test: NovaScreen competition binding; set-up: species or system human; details: 1 µM
T4 construct: PerkinElmer – Caliper Life Sciences (NovaScreen service)

Opioid, Mu (h) = test: NovaScreen competition binding; set-up: species or system human; details: 1 µM
Serotonin, 5HT4 = test: NovaScreen competition binding; details: 1 µM
Sodium, Site 2 = test: NovaScreen competition binding; details: 1 µM
GABA-B = system: T5, GABA-B; test: NovaScreen competition binding; details: 1 µM
T5 construct: PerkinElmer – Caliper Life Sciences (NovaScreen)

α3β4* nAChRs = molecular target: T6, α3β4* nAChRs (Mus musculus, UniProt Q8R493+Q8R4G9); test: [125I]epibatidine binding, IPN membranes from β2KO mice
T6 construct: from tissue
T6 sequence (Q8R4G9 26-499): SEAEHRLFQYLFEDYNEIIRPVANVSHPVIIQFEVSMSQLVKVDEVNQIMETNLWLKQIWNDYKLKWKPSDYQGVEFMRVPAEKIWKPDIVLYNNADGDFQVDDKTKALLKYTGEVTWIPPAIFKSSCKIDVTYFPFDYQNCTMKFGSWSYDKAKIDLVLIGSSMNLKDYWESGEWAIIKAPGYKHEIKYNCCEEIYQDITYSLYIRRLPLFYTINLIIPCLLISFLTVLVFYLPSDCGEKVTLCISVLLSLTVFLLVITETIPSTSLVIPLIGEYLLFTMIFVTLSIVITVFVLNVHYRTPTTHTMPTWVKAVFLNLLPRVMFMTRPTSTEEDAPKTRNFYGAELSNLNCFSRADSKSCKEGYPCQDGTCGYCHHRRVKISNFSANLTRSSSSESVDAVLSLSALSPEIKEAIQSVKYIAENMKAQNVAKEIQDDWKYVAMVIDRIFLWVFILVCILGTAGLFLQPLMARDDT
T6 sequence (Q8R493 21-495): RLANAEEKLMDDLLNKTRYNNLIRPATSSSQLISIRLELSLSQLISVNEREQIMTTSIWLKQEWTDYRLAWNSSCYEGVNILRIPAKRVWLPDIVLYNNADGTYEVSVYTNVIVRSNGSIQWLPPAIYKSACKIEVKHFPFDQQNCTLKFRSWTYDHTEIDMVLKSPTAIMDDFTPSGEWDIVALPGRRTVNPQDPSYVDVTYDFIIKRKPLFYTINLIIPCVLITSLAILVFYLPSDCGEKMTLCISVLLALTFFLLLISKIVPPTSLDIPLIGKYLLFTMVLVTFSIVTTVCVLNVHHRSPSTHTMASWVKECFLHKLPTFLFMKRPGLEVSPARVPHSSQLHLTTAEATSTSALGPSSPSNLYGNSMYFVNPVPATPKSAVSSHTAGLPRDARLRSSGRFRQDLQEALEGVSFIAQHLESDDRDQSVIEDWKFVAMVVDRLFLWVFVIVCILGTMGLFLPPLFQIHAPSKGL
Method: The methods used for preparing brain membranes in hypotonic buffer have been described previously ([Marks et al., 1998], [2007]). Brain membrane preparations were stored as pellets under buffer at -70°C or used immediately. We followed previously published methods for [^125I]epibatidine binding and analysis ([Grady et al., 2010]).

[4] = system: Glutamate, NMDA Agonist Site (Ionotropic); test: NovaScreen competition binding; details: 1 µM
[5] = system: T7, GABA A, BDZ, alpha 1 site; test: NovaScreen competition binding; details: 1 µM
T7 construct: PerkinElmer – Caliper Life Sciences (NovaScreen)

[6] = system: T8, Kinase, Protein, PKCa (h); test: NovaScreen enzyme assay; type: biochemical, human; details: 1 µM
T8 construct: PerkinElmer – Caliper Life Sciences (NovaScreen service)

Serotonin Transporter = test: NovaScreen competition binding; details: 1 µM
Adrenergic, Alpha 2B = test: NovaScreen competition binding; details: 1 µM

With C1=C(/c2cncnc2)CCCNCC/1 [TC299423, (E)-5-(pyrimidin-5-yl)-1,2,3,4,7,8-hexahydroazocine] the Hit (Dopamine, D4.4 (h)) was “FALSE”, the Inhibition (Dopamine, D4.4 (h); [3H]-YM-09151-2) was -2.44% and the Hit (Muscarinic, M1 (hr)) was “FALSE”. The Inhibition (Muscarinic, M1 (hr); [3H]Scopolamine, N-Methyl) was -11.73%, the “Turnover by Human FMO3” value (Human FMO3) was 17 percent decline over 60 min and the Hit (Muscarinic, M2 (h)) was “FALSE”. The Inhibition (Muscarinic, M2 (h); [3H]Scopolamine, N-Methyl) was -3.18%, the Emax (α4β2* nAChRs; read-out: Neurotransmitter release % Efficacy, WT striatal synaptosomes, single component) was 76 ± 5% and the Emax (α4β2* nAChRs; read-out: Neurotransmitter release % Efficacy, α5KO striatal synaptosomes) was 112 ± 9%. For the same compound, the EC50 (α4β2* nAChRs; WT striatal synaptosomes, single component) was 130 nM, the EC50 (α4β2* nAChRs; α5KO striatal synaptosomes) was 600 nM and the Hit [1] was “FALSE”. The Inhibition ([1]; [3H]LTD4) was -8.26%, the Hit (Serotonin, 5HT3) was “FALSE” and the Inhibition (Serotonin, 5HT3; [3H]GR 65630) was 7.50%. For the same compound, the Hit [2] was “FALSE”, the Inhibition ([2]; [3H]NOARG) was -10.86% and the Hit (Adenosine, A1) was “FALSE”. The Inhibition (Adenosine, A1; [3H]CPX) was 7.85%, the “Half-life compared to varenicline” value [3] was about 7 fold and the half-life [3] was 4.75 h. For the same compound, the microsomal CLint ([3]; read-out: Clearance) was 5 µL/min/mg, the Hit (Angiotensin II, AT1 (h)) was “FALSE” and the Inhibition (Angiotensin II, AT1 (h); [125I]-(Sar1-Ile8) Angiotensin) was 24.85%. For the same compound, the Hit (Opioid, Mu (h)) was “FALSE”, the Inhibition (Opioid, Mu (h); [3H]-Diprenorphine) was -6.43% and the Hit (Serotonin, 5HT4) was “FALSE”. For the same compound, the Inhibition (Serotonin, 5HT4; [3H]GR 113808) was -16.64%, the Hit (Sodium, Site 2) was “FALSE” and the Inhibition (Sodium, Site 2; [3H]Batrachotoxin A 20-a-Benzo) was 6.91%. For the same compound, the Hit (GABA-B) was “FALSE”, the Inhibition (GABA-B; [3H]CGP 54626A) was -2.43% and the Ki (α3β4* nAChRs) was 18 ± 0.7 nM. For the same compound, the Hit [4] was “FALSE”, the Inhibition ([4]; [3H]CGP 39653) was 5.51% and the Hit [5] was “FALSE”. For the same compound, the Inhibition ([5]; [3H]Flunitrazepam) was 11.84%, the Hit [6] was “FALSE” and the Inhibition ([6]; substrate Fluorescein-labeled peptide) was -1.00%. For the same compound, the Hit (Serotonin Transporter) was “FALSE”, the Inhibition (Serotonin Transporter; [3H]Citalopram, N-Methyl) was 7.03% and the Hit (Adrenergic, Alpha 2B) was “FALSE”. For the same compound, the Inhibition (Adrenergic, Alpha 2B; [3H]MK-912) was -14.09%.
